# According to patent US20230382916A1, “HETEROARYL HETEROCYCLIC COMPOUNDS AND USES THEREOF” (HUTCHISON MEDIPHARMA LIMITED, priority 2020, published 2023):
# Legend:
# BTK recombinant protein = BTK recombinant protein (Homo sapiens (Human), UniProt Q06187); test: Determination of biochemical BTK (Z'-LYTE kinase assay); details: 32 μM ATP
# Text: BTK recombinant protein: Invitrogen, Cat #PV3363;
# Z′-LYTE® kinase test kit-tyrosine 1 peptide: Invitrogen, Cat #PV3190;
# Z′-LYTE® biochemical assay employs a fluorescence resonance energy transfer (FRET)-based, coupled-enzyme format and is based on the differential sensitivity of phosphorylated and non-phosphorylated peptides to proteolytic cleavage. Both ends of the short peptide substrate are labeled with two fluorescent groups to form a FRET paired combination. In the primary reaction (the Kinase Reaction), the kinase transfers the γ-phosphate of ATP to a single […] residue on the short peptide substrate. In the secondary reaction (the development reaction), the non-phosphorylated short peptides were recognized and cleaved by a site-specific protease (the development reagent). Phosphorylated short peptides can resist such cleavage. Cleavage of short peptides can disrupt the donor (such as coumarin) and receptor fluorophores (fluorescein) on the short peptides, while the phosphorylated short peptides can maintain FRET. The calculation method of the ratio is as follows, and the ratio of the respective emission signals generated by the donor fluorophores emitted (after excitation at 400 nm) to the receptors is calculated. Emission signal ratio=emitted light by coumarin (445 nm)/emitted light by fluorescein (520 nm). If the FRET short peptide is phosphorylated (such as no kinase inhibitor), the emitted light ratio will remain in a lower level. If the FRET short peptide is non-phosphorylated (such as kinase inhibitor), the emitted light ratio will be in a higher level. In this way, the inhibitory effects of different compound inhibitors on BTK kinase activity would be distinguished.
# The experiment was carried out according to the instructions of the Z′-LYTE® kinase test kit-tyrosine 1 peptide. Reagent preparation: 1.33× kinase buffer: 5× kinase buffer was diluted with water to 1.33× kinase buffer; an enzyme solution: the kinase was dissolved in 1.33× kinase buffer with the final working concentration being 3.32 nM; a short peptide solution: a short peptide stock solution (1 mM dissolved in DMSO) was dissolved in 1.33× kinase buffer with the final working concentration being 2 μM; Z′-LYTE Tyr01 phosphorylated short peptide solution, 0.6 μl of stock solution (1 mM dissolved in DMSO) was dissolved in 149.4 μl of 1.33× kinase buffer; an ATP solution: an ATP stock solution (10 mM aqueous solution) was dissolved in 1.33× kinase buffer with the final working concentration being 32 μM; a color-developing solution: color-developing solution B was dissolved in color-developing buffer with the final working concentration being 1× color-developing solution; 4× compound preparation: the compound was diluted in 3-fold gradient concentration to finally obtain 4% DMSO aqueous solution containing different concentrations of the compound, with the final working concentration being 3000, 1000, 333.33, 111.11, 37.04, 12.35, 4.12, 1.37 nM, 8 concentration points in total.
# Specific steps of the experiment: In the experiment, there were three control groups, each with 8 replicate wells, which were C1 100% inhibition group (no ATP), C2 0% inhibition group (with ATP), and C3 100% phosphorylation group, respectively. 2.5 μl of serially diluted compound was added to each well of a 384-well plate, with double replicate wells, and 4% DMSO solution was added to wells C1, C2, and C3. After that, except for wells C3, 2.5 μl of BTK enzyme solution was added to each remaining well, which was left to stand at 4° C. for 30 minutes. After that, except for wells C3, 2.5 μl of short peptide solution was added to each well, and 5 μl of phosphorylated short peptide solution was added to each of wells C3. 2.5 μl of 1.33× kinase buffer was added to each of wells C1 and C3, and 2.5 μl of ATP solution was added to each of the remaining wells. The wells were centrifuged transiently, and the plate was shaken at 1000 rpm for 30 seconds to perform transient centrifuge. […]
# [1] = tested on: idiopathic thrombocytopenic purpura induced by anti-mouse CD41 antibodies; test: Idiopathic thrombocytopenic purpura induced by anti-CD41 antibody in mice, level of platelets; assay type: in vivo; details: 40 mg/kg oral single dose
# Experimental: Male C57BL/6 mice were purchased from Shanghai Lingchang Biotechnology Co., Ltd. (certificate number 20180003011079, initial body weight of 18-20 grams), and were randomly grouped according to Table 4, with 8 mice in each group. […] When modeling, each mouse was intraperitoneally injected with 200 μL of PBS solution containing […] of anti-mouse CD41 antibodies (BD, Cat #: 553487, Lot #: 7026765).
# Eight hours and twenty-four hours after modeling, the whole blood was collected and placed in a centrifuge tube coated with 10% citrate-phosphate-dextrose-adenine (CPDA), and the level of platelets (PLT) in the whole blood was measured by an XT-2000i (SYSMEX) automatic blood analyzer (Shanghai Laboratory Animal Research Centre Sino-British SIPPR/B & K Lab Animal Ltd).
# The average level of platelets in peripheral blood was analyzed with Graphpad statistical software by one way ANOVA followed by Fisher LSD multiple comparison test, and the p value was calculated, wherein *p<0.05 indicated a statistically significant difference compared with the vehicle control group, **p<0.01 indicated a statistically extremely significant difference compared with the vehicle control group, and ##p<0.01 indicated a statistically extremely significant difference compared with the normal group.
# RR %=(PLTtreatment−PLTmodel)/(PLTnaive−PLTmodel)×100%.
# Chain of BTK recombinant protein (Q06187 whole entry): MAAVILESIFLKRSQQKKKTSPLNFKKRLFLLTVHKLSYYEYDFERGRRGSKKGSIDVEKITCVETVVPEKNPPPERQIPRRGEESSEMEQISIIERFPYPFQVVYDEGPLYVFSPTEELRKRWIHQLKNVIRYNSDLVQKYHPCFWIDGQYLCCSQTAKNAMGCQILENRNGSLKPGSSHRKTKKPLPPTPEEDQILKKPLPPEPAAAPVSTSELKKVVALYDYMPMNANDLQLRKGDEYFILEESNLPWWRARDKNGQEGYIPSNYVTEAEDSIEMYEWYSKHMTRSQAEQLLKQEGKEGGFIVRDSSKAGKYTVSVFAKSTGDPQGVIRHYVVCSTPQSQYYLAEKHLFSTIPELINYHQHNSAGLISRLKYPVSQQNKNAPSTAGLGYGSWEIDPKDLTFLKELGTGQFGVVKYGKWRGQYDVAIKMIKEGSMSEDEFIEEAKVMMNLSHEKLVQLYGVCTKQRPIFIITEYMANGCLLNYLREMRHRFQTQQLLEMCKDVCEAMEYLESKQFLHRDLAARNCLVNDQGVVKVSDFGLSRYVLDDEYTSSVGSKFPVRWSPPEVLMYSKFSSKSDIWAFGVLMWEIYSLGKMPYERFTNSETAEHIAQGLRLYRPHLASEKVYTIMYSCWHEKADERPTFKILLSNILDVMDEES
Compound,IC50 (BTK recombinant protein),recovery rate of platelets ([1]; 8 hours after modeling),recovery rate of platelets ([1]; 24 hours after modeling)
C[C@H]1CN(C2COC2)C[C@H](C)N1c1ccc(Nc2cc(-c3ccnc(-n4ccn5c6c(c(F)c5c4=O)CCCC6)c3CO)cn(C)c2=O)nc1 [Compound 3],3 nM,–,–
"C[C@H]1CN(C)C[C@H](C)N1c1ccc(Nc2cc(-c3ccnc(-n4ccn5c6c(cc5c4=O)CC(C)(C)C6)c3CO)cn(C)c2=O)nc1 [Compound 6, 2-(3′-(hydroxymethyl)-1-methyl-6-oxo-5-((5-((2S,6S)-2,4,6-trimethylpiperazin-1-yl)pyridin-2-yl)amino)-1,6-dihydro-[3,4′-bipyridin]-2′-yl)-7,7-dimethyl-7,8-dihydro-2H-cyclopenta[4,5]pyrrolo[1,2-a]pyrazin-1(6H)-one]",7 nM,–,–
"CC(C)(/C=C(\C#N)C(=O)N1CCC[C@@H](n2nc(-c3ccc(Oc4ccccc4)cc3F)c3c(N)ncnc32)C1)N1CCN(C2COC2)CC1 [PRN1008, rilzabrutinib, reference compound]",–,40%,16%
